Legend:
IRAK4 = target: T1, IRAK4 (Homo sapiens, UniProt Q9NWZ3); test: IRAK4 degradation activity in hPBMC cells (24 hours), automated western blot; type: cell-based; conditions: IRAK4 protein degradation in hPBMC cells
T1 construct: endogenous in cells; host or cells: human peripheral blood mononuclear cells (hPBMC) from healthy volunteers
T1 sequence (Q9NWZ3 1-460): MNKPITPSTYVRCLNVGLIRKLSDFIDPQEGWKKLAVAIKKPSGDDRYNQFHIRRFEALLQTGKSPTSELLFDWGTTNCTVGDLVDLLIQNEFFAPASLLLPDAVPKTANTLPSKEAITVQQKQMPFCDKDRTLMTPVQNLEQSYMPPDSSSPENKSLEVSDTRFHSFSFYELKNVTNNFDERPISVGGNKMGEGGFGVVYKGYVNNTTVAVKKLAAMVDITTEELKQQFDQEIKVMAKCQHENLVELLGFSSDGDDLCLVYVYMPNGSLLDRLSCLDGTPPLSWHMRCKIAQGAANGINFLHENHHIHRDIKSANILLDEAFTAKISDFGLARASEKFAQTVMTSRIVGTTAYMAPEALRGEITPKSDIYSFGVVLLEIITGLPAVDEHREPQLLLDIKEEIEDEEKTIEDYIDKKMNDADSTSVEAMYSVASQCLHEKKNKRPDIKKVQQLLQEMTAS
Protocol: Test example 1: Study on IRAK4 degradation activity in hPBMC cells (24 hours)
hPBMC cells are human peripheral blood mononuclear cells. Peripheral venous blood was taken from healthy volunteers, and hPBMCs were isolated using Ficoll density gradient centrifugation (Ficoll-PaqueTM PLUS 1.077, GE, Cat. 17-1140-02). Culture conditions: RPMI-1640 + 10% FBS + 1% penicillin-streptomycin solution. The cells were cultured in an incubator at 37°C and 5% CO2. The cells were plated in a 24-well plate at 1 × 10^6 cells/well. After plating, compounds at different concentrations were added, and the cells were cultured in an incubator at 37°C and 5% CO2 for 24 hours. After the culture was completed, the cells were collected, and RIPA lysis buffer (beyotime, Cat. P0013B) was added. […] The protein sample of the supernatant was collected, the protein was quantified using a BCA kit (Beyotime, Cat. P0009), and then the protein was diluted to 1 mg/mL. The expression of IRAK4 (CST, Cat. 4363S) and the internal reference cofilin (CST, Cat. 5175S) were detected using a fully automated western blot quantitative analyser (Proteinsimple). The expression level of IRAK4 relative to the internal reference was calculated using compass software. […] An IRAK4 degradation-drug concentration curve was fit using Graphpad Prism 8 software, and the DC50 was calculated. […]

[1] = Pharmacokinetic test in mice; type: in vivo, ICR mice; conditions: mouse, po; plasma of mice, i.g. (10 mg/kg)
Protocol: Test example 2: Pharmacokinetic test in mice
Experimental animals: Male ICR mice, about 25 g, 6 mice/compound, purchased from Chengdu Ddossy Experimental Animals Co., Ltd.
Test design: On the day of the experiment, 6 ICR mice were randomly grouped according to their body weights. The animals were fasted with water available for 12 to 14 h one day before the administration, and were fed 4 h after the administration. Table 2.1 Administration information
Before and after the administration, 0.15 mL of blood was taken from the orbit of the animals under isoflurane anaesthesia and placed in an EDTAK2 centrifuge tube. The blood was centrifuged at 5000 rpm and 4°C for 10 min to collect plasma. The blood collection time points for the intravenous administration group and intragastric administration group were 0 min, 5 min, 15 min, 30 min, 1 h, 2 h, 4 h, 7 h and 24 h. Before analysis and detection, all samples were stored at - 60°C. The samples were analysed quantitatively by LC-MS/MS. Table 2.2 Pharmacokinetic parameters of compounds of the present invention in plasma of mice

[2] = target: T2, hERG potassium ion channel (Homo sapiens, UniProt Q12809); test: Effect on hERG potassium ion channel, manual whole cell patch-clamp in CHO cells; type: cell-based; conditions: hamster, inhibitory effect on hERG potassium channel current
T2 construct: expressed in transfected cells
Text: Test example 3. Test of effect on hERG potassium ion channel
Experimental platform: electrophysiological manual patch-clamp system
Cell line: Chinese hamster ovary (CHO) cell line stably expressing hERG potassium ion channel
Experimental method: In CHO (Chinese Hamster Ovary) cells stably expressing hERG potassium channel, whole cell patch-clamp technique was used to record hERG potassium channel current at room temperature. The glass microelectrode was made of a glass electrode blank (BF150-86-10, Sutter) by a puller. The tip resistance after filling the liquid in the electrode was about 2-5 MΩ. The glass microelectrode can be connected to the patch-clamp amplifier by inserting the glass microelectrode into an amplifier probe. The clamping voltage and data recording were controlled and recorded by the pClamp 10 software through a computer. The sampling frequency was 10 kHz, and the filtering frequency was 2 kHz. […]
Compound IC50 was calculated using GraphPad Prism 5 software by fitting according to the following equation: Y = Bottom + (Top−Bottom)/(1+10^(∧)((LogIC50−X)*HillSlope)) [formula] where X represents the Log value of the tested concentration of the test sample, Y represents the inhibition percentage at the corresponding concentration, and Bottom and Top represent the minimum and maximum inhibition percentage, respectively. […]

T2 sequence (Q12809 whole entry): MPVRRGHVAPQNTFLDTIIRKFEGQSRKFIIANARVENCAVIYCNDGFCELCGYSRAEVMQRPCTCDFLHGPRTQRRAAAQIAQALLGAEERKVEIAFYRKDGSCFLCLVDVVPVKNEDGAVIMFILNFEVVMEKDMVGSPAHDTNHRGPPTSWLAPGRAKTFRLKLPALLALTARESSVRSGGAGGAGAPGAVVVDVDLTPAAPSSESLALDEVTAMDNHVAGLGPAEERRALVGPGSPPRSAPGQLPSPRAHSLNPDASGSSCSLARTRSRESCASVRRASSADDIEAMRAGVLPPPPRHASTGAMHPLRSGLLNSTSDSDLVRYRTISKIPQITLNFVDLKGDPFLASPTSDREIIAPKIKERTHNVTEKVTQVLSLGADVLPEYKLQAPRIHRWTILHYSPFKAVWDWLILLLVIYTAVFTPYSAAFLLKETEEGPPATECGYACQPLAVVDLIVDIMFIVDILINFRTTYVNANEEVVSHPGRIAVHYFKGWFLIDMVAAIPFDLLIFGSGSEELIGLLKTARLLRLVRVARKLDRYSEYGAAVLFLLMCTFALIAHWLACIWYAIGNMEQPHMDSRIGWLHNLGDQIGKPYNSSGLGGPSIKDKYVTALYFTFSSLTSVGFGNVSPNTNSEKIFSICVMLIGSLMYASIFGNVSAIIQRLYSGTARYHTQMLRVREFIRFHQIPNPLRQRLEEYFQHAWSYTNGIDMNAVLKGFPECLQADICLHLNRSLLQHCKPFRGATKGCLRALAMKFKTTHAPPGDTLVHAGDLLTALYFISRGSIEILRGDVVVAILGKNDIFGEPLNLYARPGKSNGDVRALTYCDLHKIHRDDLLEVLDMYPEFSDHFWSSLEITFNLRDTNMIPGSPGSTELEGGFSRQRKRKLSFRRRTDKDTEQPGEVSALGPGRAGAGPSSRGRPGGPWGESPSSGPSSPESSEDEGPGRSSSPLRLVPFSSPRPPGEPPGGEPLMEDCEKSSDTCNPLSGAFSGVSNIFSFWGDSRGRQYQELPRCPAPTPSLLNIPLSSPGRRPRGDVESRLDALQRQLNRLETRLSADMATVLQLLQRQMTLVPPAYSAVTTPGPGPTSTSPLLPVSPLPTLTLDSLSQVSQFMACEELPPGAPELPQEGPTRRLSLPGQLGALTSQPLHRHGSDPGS

Row | Compound | DC50 (IRAK4) [nM] | AUC(0-t) at 24 h [1] [ng·h/mL] | IC50 [2] [µM]
1 | Cn1nc(C2CCC(=O)NC2=O)c2cccc(C#CCO[C@@H]3CCN(C[C@H]4CC[C@H](n5cc(NC(=O)c6cnn7ccc(N8CCO[C@H](CO)C8)nc67)c(C(F)F)n5)CC4)C[C@@H]3F)c21 (single isomer, unassigned) [Chiral isomer 2 of compound 20] | < 20 | – | –
2 | Cn1c(=O)n(C2CCC(=O)NC2=O)c2cccc(C#CCOC3CCN(C[C@H]4CC[C@H](n5cc(NC(=O)c6cnn7ccc(N8C[C@H]9C[C@@H]8CO9)nc67)c(C(F)F)n5)CC4)CC3)c21 (stereo partly shown) [Control compound 1] | – | 2320 ± 146 | –
3 | Cn1nc(C2CCC(=O)NC2=O)c2cccc(C#CCO[C@@H]3CCN(C[C@H]4CC[C@H](n5cc(NC(=O)c6cnn7ccc(N8CCO[C@H](CO)C8)nc67)c(C(F)F)n5)CC4)C[C@@H]3F)c21 (single isomer, unassigned) [Chiral isomer 1 of compound 20] | < 20 | – | > 40
